From US20250381195A1, “Methods of Treating Diabetic Macular Edema” (UNM Rainforest Innovations, priority 2024, published 2025)
Where a name gives a salt, the structure may show the parent alone.

System: HRECs treated with VEGF (human retinal endothelial cells)
Test: in vitro permeability / Electrical Cell-Substrate Impedance Sensing (ECIS) assay
Format: cell-based
Details: 50 ng/ml Rec. VEGF, compounds at 10 uM, resistance calculated at the end of 24 hrs
Procedure: The 250-um diameter gold electrode measures the ion current in the cell layer and measures the resistance and how the barrier function is altered with VEGF and drug treatment.
The inventors used the Prestwick chemical library compounds, which consists of a total of 1520 library compounds to check their effectiveness to decrease permeability in HRECs treated with VEGF (FIG. 4). […] The in vitro permeability or Electrical Cell-Substrate Impedance Sensing (ECIS) assay was carried out using Applied biophysics Z theta instrument, using 96W10idf PET plates. The HRECs were first seeded on the plates and the cells were allowed to grow until the desired resistance was achieved (800-1200V), this usually takes 15-18 hrs. After that the cells were treated with 50 ng/ml Rec. VEGF and the compounds at 10 uM concentration. At the end of 24 hrs, the resistance was calculated (an increase in resistance implies decreased permeability).

SMILES	resistance of EC layer (an increase in resistance implies decreased permeability)
Cc1ccc(N(CC2=NCCN2)c2cccc(O)c2)cc1 [Phentolamine, phentolamine]	increased resistance
Cc1noc(NS(=O)(=O)c2ccc(N)cc2)c1C [Sulfisoxazole, sulfisoxazole]	increased resistance
OC[C@H]1O[C@@H](c2ccc(Cl)c(Cc3ccc(O[C@H]4CCOC4)cc3)c2)[C@H](O)[C@@H](O)[C@@H]1O [Empaglifozin, empagliflozin]	significant increase in resistance
c1ccc2c(CC3=NCCN3)cccc2c1 [Naphazoline HCl, naphazoline]	increased resistance
CNCCCN1c2ccccc2CCc2ccccc21 [Desipramine HCl, desipramine]	significant increase in resistance
CN(C)CCN(Cc1cccs1)c1ccccn1 [Methapyrilene, methapyrilene]	increased resistance
O=[N+]([O-])c1ccc(O)c2ncccc12 [Nitroxolone, nitroxolone]	significant increase in resistance
N#Cc1ccc(Oc2ccc3c(c2)COB3O)cc1 [Crisaborole, crisaborole]	significant increase in resistance
CNCCCC1c2ccccc2C=Cc2ccccc21 [Protriptyline HCl, protriptyline]	significant increase in resistance
CC(C(=O)O)c1ccc(C(=O)c2cccs2)cc1 (stereo not shown) [Suprofen, suprofen]	increased resistance
